Assay results from the kinase profiling compilation of Christmann-Franck et al. (2016).

Key:
Experiment in all cases: radiometric filter-binding kinase assay, Kinaseprofiler
FES (human) = FES (human) (UniProt P07332)
MERTK (human) = MERTK (human) (UniProt Q12866)
FLT4 (human) = FLT4 (human) (UniProt P35916)
FGFR3 (human) = FGFR3 (human) (UniProt P22607)
Chain of FGFR3 (human) (P22607 whole entry, looked up): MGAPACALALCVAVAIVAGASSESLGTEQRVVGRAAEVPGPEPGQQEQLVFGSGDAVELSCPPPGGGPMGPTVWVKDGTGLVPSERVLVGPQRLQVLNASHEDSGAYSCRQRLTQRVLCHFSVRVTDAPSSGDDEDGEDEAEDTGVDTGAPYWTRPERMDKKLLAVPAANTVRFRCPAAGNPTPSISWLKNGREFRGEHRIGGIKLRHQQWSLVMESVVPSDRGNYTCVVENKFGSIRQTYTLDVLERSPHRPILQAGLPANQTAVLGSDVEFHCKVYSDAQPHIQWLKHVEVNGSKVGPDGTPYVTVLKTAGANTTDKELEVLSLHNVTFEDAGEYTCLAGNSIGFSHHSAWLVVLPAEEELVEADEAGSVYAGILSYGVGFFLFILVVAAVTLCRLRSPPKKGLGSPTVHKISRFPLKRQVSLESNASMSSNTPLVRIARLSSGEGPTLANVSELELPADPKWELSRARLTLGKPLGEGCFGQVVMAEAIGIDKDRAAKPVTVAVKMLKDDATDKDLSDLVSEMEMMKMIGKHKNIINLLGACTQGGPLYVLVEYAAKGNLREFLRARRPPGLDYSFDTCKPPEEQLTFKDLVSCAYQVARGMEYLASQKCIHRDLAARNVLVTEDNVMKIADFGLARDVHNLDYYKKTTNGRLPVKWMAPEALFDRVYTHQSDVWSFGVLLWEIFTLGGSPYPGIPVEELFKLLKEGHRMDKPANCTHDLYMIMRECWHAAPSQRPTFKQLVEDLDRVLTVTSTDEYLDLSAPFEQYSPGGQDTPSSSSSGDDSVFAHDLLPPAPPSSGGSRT

Chain of FLT4 (human) (P35916 whole entry, looked up): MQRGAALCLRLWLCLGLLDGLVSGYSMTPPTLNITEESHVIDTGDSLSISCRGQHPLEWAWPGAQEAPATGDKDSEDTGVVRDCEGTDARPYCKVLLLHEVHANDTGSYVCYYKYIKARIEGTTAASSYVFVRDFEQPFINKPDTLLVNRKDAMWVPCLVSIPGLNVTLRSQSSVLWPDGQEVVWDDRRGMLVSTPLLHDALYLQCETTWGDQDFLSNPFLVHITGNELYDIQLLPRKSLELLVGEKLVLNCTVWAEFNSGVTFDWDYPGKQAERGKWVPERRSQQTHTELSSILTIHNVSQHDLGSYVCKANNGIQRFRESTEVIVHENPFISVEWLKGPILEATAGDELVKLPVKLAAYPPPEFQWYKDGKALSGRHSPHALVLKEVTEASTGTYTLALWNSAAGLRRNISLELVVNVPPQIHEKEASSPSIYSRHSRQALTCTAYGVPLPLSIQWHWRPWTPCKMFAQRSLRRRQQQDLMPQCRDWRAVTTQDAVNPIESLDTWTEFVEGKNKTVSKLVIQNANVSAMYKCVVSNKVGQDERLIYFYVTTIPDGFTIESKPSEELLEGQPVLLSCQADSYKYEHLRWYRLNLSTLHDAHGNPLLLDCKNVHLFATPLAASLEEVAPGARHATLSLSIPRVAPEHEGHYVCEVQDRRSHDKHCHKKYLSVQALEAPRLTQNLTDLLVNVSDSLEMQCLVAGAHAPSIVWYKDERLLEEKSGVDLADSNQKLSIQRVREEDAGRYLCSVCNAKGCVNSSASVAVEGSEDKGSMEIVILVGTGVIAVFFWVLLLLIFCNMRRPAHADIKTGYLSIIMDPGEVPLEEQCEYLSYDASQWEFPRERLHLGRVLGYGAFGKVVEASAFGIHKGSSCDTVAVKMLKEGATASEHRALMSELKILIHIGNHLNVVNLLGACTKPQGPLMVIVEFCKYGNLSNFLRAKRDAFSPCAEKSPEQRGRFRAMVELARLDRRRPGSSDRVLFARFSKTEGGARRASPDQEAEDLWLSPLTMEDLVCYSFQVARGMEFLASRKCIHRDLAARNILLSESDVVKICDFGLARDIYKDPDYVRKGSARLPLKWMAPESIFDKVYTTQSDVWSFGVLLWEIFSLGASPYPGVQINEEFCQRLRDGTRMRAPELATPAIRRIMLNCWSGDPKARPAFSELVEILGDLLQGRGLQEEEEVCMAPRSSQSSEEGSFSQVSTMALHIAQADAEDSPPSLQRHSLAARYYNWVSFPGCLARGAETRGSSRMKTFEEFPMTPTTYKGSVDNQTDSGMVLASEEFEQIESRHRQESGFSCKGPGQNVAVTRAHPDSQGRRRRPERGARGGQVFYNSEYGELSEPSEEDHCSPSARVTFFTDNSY
Chain of MERTK (human) (Q12866 whole entry, looked up): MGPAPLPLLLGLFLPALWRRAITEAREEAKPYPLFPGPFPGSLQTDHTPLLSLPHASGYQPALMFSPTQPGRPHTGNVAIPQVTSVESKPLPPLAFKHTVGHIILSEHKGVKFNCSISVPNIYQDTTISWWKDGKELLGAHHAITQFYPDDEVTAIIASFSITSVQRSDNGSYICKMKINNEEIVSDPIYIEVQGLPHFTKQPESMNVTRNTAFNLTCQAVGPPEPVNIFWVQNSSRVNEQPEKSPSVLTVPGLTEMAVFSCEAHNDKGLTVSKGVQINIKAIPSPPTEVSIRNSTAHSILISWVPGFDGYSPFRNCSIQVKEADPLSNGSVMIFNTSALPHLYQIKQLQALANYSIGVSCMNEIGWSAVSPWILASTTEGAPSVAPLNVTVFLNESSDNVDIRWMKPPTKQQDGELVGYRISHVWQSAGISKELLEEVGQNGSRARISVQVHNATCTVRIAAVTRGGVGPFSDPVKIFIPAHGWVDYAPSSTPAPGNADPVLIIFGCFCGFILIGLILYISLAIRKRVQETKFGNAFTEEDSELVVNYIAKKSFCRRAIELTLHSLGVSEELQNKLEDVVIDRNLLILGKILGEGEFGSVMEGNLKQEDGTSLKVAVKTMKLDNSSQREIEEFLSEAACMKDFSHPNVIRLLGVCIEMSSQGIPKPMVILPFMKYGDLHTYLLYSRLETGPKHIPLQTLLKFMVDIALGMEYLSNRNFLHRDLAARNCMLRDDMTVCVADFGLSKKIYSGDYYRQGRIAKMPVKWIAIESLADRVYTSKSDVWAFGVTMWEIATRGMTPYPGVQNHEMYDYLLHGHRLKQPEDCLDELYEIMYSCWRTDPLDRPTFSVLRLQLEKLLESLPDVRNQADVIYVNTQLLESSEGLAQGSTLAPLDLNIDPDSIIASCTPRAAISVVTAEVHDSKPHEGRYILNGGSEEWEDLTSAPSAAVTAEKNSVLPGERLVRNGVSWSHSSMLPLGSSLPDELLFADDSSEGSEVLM
Chain of FES (human) (P07332 whole entry, looked up): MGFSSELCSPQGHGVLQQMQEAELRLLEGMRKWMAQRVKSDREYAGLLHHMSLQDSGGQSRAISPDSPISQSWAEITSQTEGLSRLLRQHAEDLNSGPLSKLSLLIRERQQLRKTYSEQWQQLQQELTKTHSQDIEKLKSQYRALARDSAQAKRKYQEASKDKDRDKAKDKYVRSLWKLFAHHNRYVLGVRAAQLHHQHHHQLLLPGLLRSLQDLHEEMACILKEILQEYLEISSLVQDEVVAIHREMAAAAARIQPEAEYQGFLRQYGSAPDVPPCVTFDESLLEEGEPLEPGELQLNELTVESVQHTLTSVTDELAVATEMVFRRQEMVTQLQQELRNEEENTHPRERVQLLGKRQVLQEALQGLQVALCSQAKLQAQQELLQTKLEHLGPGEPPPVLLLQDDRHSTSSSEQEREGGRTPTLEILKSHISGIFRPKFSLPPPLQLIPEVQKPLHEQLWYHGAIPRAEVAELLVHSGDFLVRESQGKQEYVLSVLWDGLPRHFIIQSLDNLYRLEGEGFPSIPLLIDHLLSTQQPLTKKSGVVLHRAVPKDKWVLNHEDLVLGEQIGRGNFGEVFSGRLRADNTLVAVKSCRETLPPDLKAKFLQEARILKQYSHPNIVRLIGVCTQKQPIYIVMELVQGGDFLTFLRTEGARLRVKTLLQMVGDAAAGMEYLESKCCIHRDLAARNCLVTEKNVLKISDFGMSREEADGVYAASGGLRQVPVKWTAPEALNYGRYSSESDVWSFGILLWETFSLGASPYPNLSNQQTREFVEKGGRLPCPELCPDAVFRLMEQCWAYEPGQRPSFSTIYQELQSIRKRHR

- IC50 (FES (human)): > 10000 nM
- IC50 (MERTK (human)): 880 nM
- IC50 (FLT4 (human)): 920 nM
- IC50 (FGFR3 (human)): 1000 nM
SMILES: Cn1cc(-c2cnc3ccc4ccc(CS(=O)(=O)NCc5ccccn5)cc4c(=O)c3c2)cn1
